According to US12219938B2, “Mouse model of alcohol-induced liver cancer” (UNIVERSITY OF FLORIDA RESEARCH FOUNDATION, INCORPORATED, priority 2020, dated 2025):
“Also recorded” adds a separate entry of the source.

How the values were obtained:
EtOH-HCC = experiment: EtOH-induced hepatocarcinogenesis in STZ-treated diabetic mice (MRI and morphological evaluation of tumors); format: in vivo
From the text: Fujii et al. developed NASH-derived HCC model (STAM model) using STZ and HFD32.^15 This model replicates clinicopathological processes from fatty liver, NASH, fibrosis to HCC under diabetic background. The very high fat diet (HFD: 60% kcal fat) in combination with STZ also could induced morphologically detectable protrusion of liver tumor nodules at postnatal week 16. We have established a novel model in which ASH-associated liver cancer occurs in STZ-treated mice within 6 months after start of alcohol consumption (FIG. 2, 12). Mice were administered STZ on day two after birth. The STZ was administered in a dose sufficient to kill insulin-producing cells, and lead to diabetic mice. The streptozotocin-treated mice were then fed a Lieber-Decarli alcohol-liquid diet (EtOH) for four months starting at 8 weeks of age. Streptozotocin (200 μg/pup) was given through subcutaneous injection into mice at postnatal day 2. This dose was used to induce pre-diabetic condition in treated mice. This alcohol-liquid diet is from Bio-Sery (F1258) and EtOH is added into the liquid diets daily.
(§1) PROTACs are bivalent small molecules containing a ligand that recognizes a target protein linked to another ligand that recruits a specific E3 ubiquitin ligase.^46,47 PROTAC binding induces proximity-induced ubiquitination of the target protein and its subsequent degradation by proteasomes. PROTACs act catalytically to induce protein degradation in a sub-stoichiometric manner. They result in less drug exposure and reduced toxicity compared with traditional inhibitors since their effect is not limited by equilibrium occupancy. […] PROTAC technology was used to develop a Bcl-xL specific PROTAC (Bcl-xL-P), which targets Bcl-xL to the E3 ligase cereblon (CRBN) or VHL. ES ligases cereblon and VHL are poorly expressed in platelets.^51-53Bcl-xL and Bcl-2 dual PROTACs/degraders that link to the VHL ligand and target Bcl-xL and Bcl-2 to VHL for ubiquitination and proteasome degradation were also developed. These Bcl-xL and Bcl-2 dual PROTACs/degraders are not only potent antitumor agents but also effective senolytic agents. PROTAC 753B targets Bcl-xL and Bcl-2 for proteasome degradation by linking to E3 ligase VHL. […] We examined the effect of 753B on EtOH-induced hepatocarcinogenesis. 753B was administered through intraperitoneal injection at 5 mg/kg body weight every other day starting at one week after alcohol consumption. In parallel experiments, vehicle-treated control animals received a compound that could not interact with the VHL E3 ligase. […] Magnetic resonance imaging (MRI) can allow precise and accurate quantification of tumour volume. Therefore, we performed abdominal Mill examinations before or after Gd-chelate-enhanced MRI. HCC lesions were identified based on hypointense signals in T1 and hyperintense signals in T2-weighted scan at 6 months after EtOH feeding in the diabetic murine livers. In contract few lesions were found in EtOH fed animals treated with 753B (FIG. 16D). These Mill signals matched morphological evaluations of liver cancers in the sacrificed animals (FIG. 16E). […] Ratio of liver to body weight is an indicator of hepatocyte proliferation during liver regeneration and liver cancer development.

senescent cells [1] = experiment: Senolytic activity in livers of aging and STZ/HFD-treated mice; format: in vivo; conditions: data not shown
Bcl-xL = target: T1, Bcl-xL (Mus musculus, UniProt Q64373); experiment: Western blotting of Bcl-xL in STZ/EtOH-treated diabetic livers; format: in vivo, mice; conditions: 5 mg/kg i.p. every other day, five-month administration, 6-month feeding of 5% ethanol, vs vehicle controls
T1 construct: from tissue; host or cells: liver of STZ/EtOH-treated diabetic mice
From the text: PROTACs are bivalent small molecules containing a ligand that recognizes a target protein linked to another ligand that recruits a specific E3 ubiquitin ligase.^46,47 PROTAC binding induces proximity-induced ubiquitination of the target protein and its subsequent degradation by proteasomes. PROTACs act catalytically to induce protein degradation in a sub-stoichiometric manner. They result in less drug exposure and reduced toxicity compared with traditional inhibitors since their effect is not limited by equilibrium occupancy. […] PROTAC technology was used to develop a Bcl-xL specific PROTAC (Bcl-xL-P), which targets Bcl-xL to the E3 ligase cereblon (CRBN) or VHL. ES ligases cereblon and VHL are poorly expressed in platelets.^51-53Bcl-xL and Bcl-2 dual PROTACs/degraders that link to the VHL ligand and target Bcl-xL and Bcl-2 to VHL for ubiquitination and proteasome degradation were also developed. These Bcl-xL and Bcl-2 dual PROTACs/degraders are not only potent antitumor agents but also effective senolytic agents. PROTAC 753B targets Bcl-xL and Bcl-2 for proteasome degradation by linking to E3 ligase VHL. […] We examined the effect of 753B on EtOH-induced hepatocarcinogenesis. […] Magnetic resonance imaging (MRI) can allow precise and accurate quantification of tumour volume. […]

senescent cells [2] = experiment: X-gal staining for SA-β-galactosidase activity in STZ/EtOH-treated livers; format: in vivo, mice; conditions: 753B/EtOH-treated diabetic livers vs vehicle-treated controls
[3] = system: SASP genes, liver cancer markers (Gpc3 and Afp), oncogenes (Myc, Tgfa); experiment: Western blotting and Q-RT-PCR of senescence, liver cancer marker and oncogene expression in STZ/EtOH-treated livers; format: in vivo, mice
From the text: as §1

liver fibrosis = experiment: Myofibroblast activation and liver fibrosis during EtOH-associated hepatocarcinogenesis in diabetic mice; format: in vivo
From the text: Fibrosis is characterized by myofibroblast cell activation and excessive collagen deposition. Extensive fibrotic reaction has been reported during NASH to HCC transition through the chemical and dietary intervention by STZ/HFD cotreatment.^4 We compared effects of 753B and control compound on liver fibrosis in the diabetic animals after 5-month drug administration. […] Decreased liver fibrosis was further verified after quantitative measurement of collagen content based on hydroxyproline assay in livers exposed to 753B administration (1031.8±116.4 versus 721.2±215.0) (FIG. 17D). Ishak score of the liver tissue in the livers were also analyzed. Grade 0 has no fibrosis. Grade 1 has fibrous expansion of some portal areas, with or without short fibrous septa. Grade 2 contains fibrous expansion of most portal areas, with or without short fibrous septa. Grade 3 has fibrous expansion of most portal areas with an occasional portal to portal bridging. Grade 4 contains fibrous expansion of portal areas with marked bridging including portal-portal and portal-central bridging. Grade 5 has marked portal-portal and portal-central bridging with occasional nodules (incomplete cirrhosis). Grade 6 has cirrhosis, probable or define.

[4] = STZ/EtOH-treated livers, 5 mice per group
[5] = Q-RT-PCR, 753B/EtOH-treated diabetic livers vs vehicle-treated controls
[6] = 5-month drug administration, vs controls

T1 sequence (Q64373 whole entry): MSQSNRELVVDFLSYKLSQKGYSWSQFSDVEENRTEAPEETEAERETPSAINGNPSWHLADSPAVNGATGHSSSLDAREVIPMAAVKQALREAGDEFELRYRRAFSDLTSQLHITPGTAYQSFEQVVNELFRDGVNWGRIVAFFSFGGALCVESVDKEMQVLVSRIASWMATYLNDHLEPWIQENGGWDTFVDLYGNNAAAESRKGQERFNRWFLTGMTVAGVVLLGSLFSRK

Cc1ncsc1-c1ccc([C@H](C)NC(=O)[C@@H]2C[C@@H](O)CN2C(=O)[C@@H](NC(=O)CCCCCCC(=O)N2CCN(C[C@]3(C)CCC(c4ccc(Cl)cc4)=C(CN4CCN(c5ccc(C(=O)NS(=O)(=O)c6ccc(N[C@H](CCN7CCOCC7)CSc7ccccc7)c(S(=O)(=O)C(F)(F)F)c6)cc5)CC4)C3)CC2)C(C)(C)C)cc1 [753B]
formation of tumor nodules, number (EtOH-HCC; [4]): efficiently inhibited | formation of tumor nodules, volume (EtOH-HCC; [4]): efficiently inhibited | ratio of liver to body weight (EtOH-HCC; STZ/EtOH-treated mice, 5 mice per group): significantly decreased | HCC lesions in MRI (EtOH-HCC; T1/T2-weighted scan at 6 months after EtOH feeding): few lesions | tumor size (diameter) of the majority of tumors (EtOH-HCC; morphological evaluation, STZ/EtOH-treated livers): small in size (<2 mM and 2-5 mm) | senolytic activity in livers (senescent cells [1]): high senolytic activity | Bcl-xL accumulation (Western blotting) (Bcl-xL): effectively inhibited Bcl-xL accumulation | senescence by SA-β-gal activity (X-gal staining) (senescent cells [2]): little senescence; also recorded: inhibited senescent cell accumulation | Gpc3 protein expression (Western blotting) ([3]; 5 mg/kg i.p. every other day, five-month administration, diabetic livers, 6-month feeding of 5% ethanol): reduced Gpc3 expression; also recorded: blocked induction | mRNA levels of SASP genes (Cdkn2a/p16, Cdkn2b/p15, Ccl2, Ccl11, Serpine1/PAI1, Ccl12) [3, 5]: significant reduction; also recorded: inhibited mRNA levels | mRNA levels of liver cancer markers (Gpc3 and Afp) [3, 5]: significant reduction; also recorded: inhibited mRNA levels | mRNA levels of oncogenes (Myc and Tgfa) [3, 5]: significant reduction | collagen deposition (Sirius red staining and Western analysis) (liver fibrosis; [6]): significantly lower; also recorded: little collagen deposition | myofibroblast activation (aSMA immunofluorescent staining and Western blotting) (liver fibrosis; [6]): significantly reduced; also recorded: few myofibroblast activation | mRNA of fibrosis-related markers (aSMA, Col1a1, Col1a2, Col4a1, Col4a2, Tgf-b2, Ctgf, Pdgf-b, Spp1) (liver fibrosis; Q-RT-PCR, diabetic animals after 5-month drug administration, vs control compound): significant downregulation; also recorded: lower levels | aSMA and pro-collagen type I proteins (Western blotting) (liver fibrosis; STZ/EtOH/753B-treated livers): low levels | Ishak score of liver fibrosis (liver fibrosis; vs controls, 5-6 livers per group): significantly decreased; also recorded: lower levels
